Results from patent US20050220726A1, “Use of sugar esters in cosmetic and/or pharmaceutical preparations” (priority 2003, published 2005).

Columns and labels:
Type in all cases: cell-based
[1] = test system: human leukaemic granulocytes; test: Anti-inflammatory activity: respiratory burst of granulocytes (zymosan, luminol); details: + stimulation (zymosan), blank + stimulation = 100
Excerpt: In the course of cutaneous inflammation, leucocytes, such as the polymorphonuclear neutrophilic granulocytes (PMNs) for example, are stimulated by peptides, such as cytokines for example, to emit messenger substances, such as leucotriene for example, which are released from activated or necrotic cells in the dermis. These activated PMNs release not only pro-inflammatory cytokinins, leucotrienes and proteases, but also ROS, such as superoxides and hypochlorite anions for example, of which the function is to destroy penetrated pathogenic germs or fungi. This activity of the PMNs during the inflammation is known as so-called respiratory burst. To investigate to what extent the test extracts can prevent or reduce the respiratory burst, a cell line of human leukaemic granulocytes of these PMNs was incubated together with the test substances at 37° C. and 5% by vol. CO2. After the respiratory burst had been initiated by addition of a yeast extract (zymosan) to the cell solution, the release of superoxide anions was determined through their reaction with luminol.

[2] = test system: melanocytes (B16 cell line); test: Inhibition of melanin synthesis in B16 melanocytes; details: 3 days, blank value = 100
Protocol: Melanin is the pigment responsible for the color of the skin and hair. It is formed in special organelles, the melanosomes, which occur in the melanocytes of the basal layer of the human epidermis. The biosynthesis of melanin begins with the amino acid tyrosine which is oxidized to DOPA (dihydroxyphenylalanine) in the presence of tyrosinase. The DOPA then polymerizes to melanin. […] After incubation for 3 days at 37° C./5% CO2, the nutrient medium was replaced by a solution containing the test substances in various concentrations. After incubation for another 3 days, the cell protein content (Bradford's method) and the content of synthesized melanin were determined through the optical density of the homogenizate at 475 nm. The results are expressed in % against a blank value and are set out in Table 7.

[3] = test system: human keratinocytes; test: Growth inhibition on human keratinocytes with EGF; details: with EGF 10 ng/ml, 3 days, control = 100, control with EGF = 167
Protocol: Increased proliferation and differentiation of keratinocytes of the hair matrix leads to improved longer hair growth. The following test was carried out to determine the potential of the sugar esters for inhibiting hair growth which is visibly reflected in a reduction in the proliferation of human keratinocyte culture in vitro.
To this end, human keratinocytes were cultivated in a standard cell culture medium containing foetal calf serum (FCS). After incubation for 1 day at 37° C./5% CO2, the growth medium was replaced by standard medium containing 10 ng/ml epidermal growth factor (EGF) and various concentrations of sugar esters dissolved in ethanol (1% by volume).
After incubation for three days, the number of living cells was determined by determining the cell protein content by the Bradford method [Bradford, M. M., A rapid and sensitive method for the quantitation of microgram quantities of protein utilizing the principle of protein-dye binding. Anal. Biochem. (1977), Vol. 72, pp. 248-254].
The results of Table 8 represent the values of triple determinations on two batches expressed in % against a control of cell culture medium without sugar ester.

[4] = test system: human hair follicles; test: Inhibition of hair growth, in vitro cultivated hair follicles; details: conc. 0.01 % w/v
Protocol: The hair-growth-inhibiting effect of the sugar esters was determined by a method using in vitro cultivated human hair follicles in a growth medium. The growth of the hair follicles was tested in the presence and absence of fructose caprate. To this end, the hair follicles were incubated for 7 days at 37° C./5% CO2. The length of the cultivated hair follicles was recorded after 3 days and 7 days of cultivation. In a comparison example, the growth medium additionally contained 30 ng/ml IGF-1 insulin-like growth factor), a cytokine which stimulates hair follicle growth.
Each of the tests was carried out with 10 hair follicles of a donor (5 donors in all).
The results are set out in Table 9 and represent the mean values of the 50 hair follicles.

[5] = test system: Propionibacterium acnes; test: Agar dilution method (MIC determination); details: 18 to 24 h at 37° C.
Protocol: (§1) The antibacterial activity of the test substances was tested by the diffusion method on agar plates or the agar dilution method. In this method, a round filter paper of defined diameter is first impregnated with the test solution and then applied to the surface of an agar plate inoculated beforehand with the test microorganisms. The size of the inhibition zones is then determined after defined times. In particular, it is possible by this method to determine the MIC (Minimum Inhibitory Concentration) as the lowest concentration of test substance with which complete inhibition of the microorganisms can be obtained. Agar dilution method (MIC determination). Various agars were prepared as described above, test substances were added in various concentrations, homogenized and dried. The Petri dishes were then inoculated with quantities of 2 μl of the bacterial suspension. After each drying step the Petri dishes were incubated for 18 to 24 h at 37° C. […] The results represent the averages of double determinations.

[6] = test system: Staphylococcus aureus; test: Agar dilution method (MIC determination); details: 18 to 24 h at 37° C.
Protocol: as §1

[7] = test system: Staphylococcus epidermidis; test: Agar dilution method (MIC determination); details: 18 to 24 h at 37° C.
Protocol: as §1

MIC, Propionibacterium acnes [5]: 625 µg/mL
MIC, Staphylococcus aureus [6]: 1250 µg/mL
MIC, Staphylococcus epidermidis [7]: 1250 µg/mL
Substance: Fructose caprate
Cell counts ([1]; conc. 0.003 % w/v): 97 %-rel.
ROS released ([1]; conc. 0.003 % w/v): 87 %-rel.
Cell counts ([1]; conc. 0.01 % w/v): 60 %-rel.
ROS released ([1]; conc. 0.01 % w/v): 5 %-rel.
Cell melanin ([2]; conc. 0.003 % w/v): 54 %-rel.
Cell proteins ([2]; conc. 0.003 % w/v): 108 %-rel.
Cell melanin ([2]; conc. 0.006 % w/v): 30 %-rel.
Cell proteins ([2]; conc. 0.006 % w/v): 80 %-rel.
Cell protein content in % ([3]; conc. 0.001 % w/v): 163%
Cell protein content in % ([3]; conc. 0.003 % w/v): 130%
Cell protein content in % ([3]; conc. 0.01 % w/v): 45%
Hair follicle growth, increase Day 3/day 0 ([4]; + IGF (30 ng/ml IGF-1), control +21%): +15%
Hair follicle growth, increase Day 7/day 0 ([4]; + IGF (30 ng/ml IGF-1), control +45%): +25%
Hair follicle growth, increase Day 3/day 0 ([4]; without IGF, control +15%): +12%
Hair follicle growth, increase Day 7/day 0 ([4]; without IGF, control +32%): +21%
